# Reference: patent US20110105509A1 (Wyeth, LLC, priority 2009, published 2011)
# Target: T1, CRTH2 (Homo sapiens, UniProt Q9Y5Y4)
# T1 construct: expressed in transfected cells; host or cells: CHO cells
# T1 sequence (Q9Y5Y4 1-395): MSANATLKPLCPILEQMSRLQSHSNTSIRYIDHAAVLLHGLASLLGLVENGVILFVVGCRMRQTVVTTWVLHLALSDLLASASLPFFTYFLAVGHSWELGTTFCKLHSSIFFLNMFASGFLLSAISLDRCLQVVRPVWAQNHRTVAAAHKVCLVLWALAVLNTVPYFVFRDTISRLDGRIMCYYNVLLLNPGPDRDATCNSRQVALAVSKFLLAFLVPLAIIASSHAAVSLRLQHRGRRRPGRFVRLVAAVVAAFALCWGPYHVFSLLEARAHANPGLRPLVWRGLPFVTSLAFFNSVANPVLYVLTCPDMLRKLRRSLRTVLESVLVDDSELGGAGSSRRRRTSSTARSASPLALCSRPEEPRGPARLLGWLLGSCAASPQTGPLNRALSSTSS
# Experiment: FRET based competitive immunoassay (cAMP) in CRTH2 expressing CHO cells
# Format: cell-based
# Settings: CRTH2 expressing CHO cells incubated with forskolin and PGD2; Eu3+ cryptate-labeled anti-cAMP and d2-labeled cAMP
# Description: FRET Assay: To evaluate potency compounds were tested in a FRET based competitive immunoassay in which CRTH2 expressing CHO cells were incubated in the presence of forskolin and PGD2 along with Eu3+ cryptate-labeled anti-cAMP and d2-labeled cAMP.
row,Structure (SMILES),IC50 [nM]
1,"Cc1c(-c2nn(Cc3cc(F)ccc3F)c(=O)c3ccccc23)c2cc(F)ccc2n1CC(=O)O [Example 62, 2-(3-(3-(2,5-difluorobenzyl)-4-oxo-3,4-dihydrophthalazin-1-yl)-5-fluoro-2-methyl-1H-indol-1-yl)acetic acid]",9
2,"Cc1c(-c2nn(Cc3cc(F)c(F)cc3F)c(=O)c3ccccc23)c2cc(F)ccc2n1CC(=O)O [Example 63, 2-(5-fluoro-2-methyl-3-(4-oxo-3-(2,4,5-trifluorobenzyl)-3,4-dihydro-phthalazin-1-yl)-1H-indol-1-yl)acetic acid]",15
3,"Cc1c(-c2nn(Cc3ccc(F)cc3F)c(=O)c3ccccc23)c2cc(F)ccc2n1CC(=O)O [Example 64, 2-(3-(3-(2,4-difluorobenzyl)-4-oxo-3,4-dihydrophthalazin-1-yl)-5-fluoro-2-methyl-1H-indol-1-yl)acetic acid]",9
4,"Cc1c(-c2ccc(=O)n(Cc3ccc(S(C)(=O)=O)cc3)n2)c2cc(Cl)ccc2n1CC(=O)O [Example 66, 2-(5-chloro-2-methyl-3-(1-(4-(methylsulfonyl)benzyl)-6-oxo-1,6-dihydropyridazin-3-yl)-1H-indol-1-yl)acetic acid]",143
5,"Cc1c(-c2ccc(=O)n(Cc3ccc(F)cc3F)n2)c2cc(Cl)ccc2n1CC(=O)O [Example 68, 2-(5-chloro-3-(1-(2,4-difluorobenzyl)-6-oxo-1,6-dihydropyridazin-3-yl)-2-methyl-1H-indol-1-yl)acetic acid]",10
6,"Cc1c(-c2ccc(=O)n(Cc3cc(F)c(F)cc3F)n2)c2cc(Cl)ccc2n1CC(=O)O [Example 69, 2-(5-chloro-2-methyl-3-(6-oxo-1-(2,4,5-trifluorobenzyl)-1,6-dihydropyridazin-3-yl)-1H-indol-1-yl)acetic acid]",7
7,"Cc1c(-c2ccc(=O)n(Cc3ccc(F)cc3F)n2)c2cc(F)ccc2n1CC(=O)O [Example 71, 2-(3-(1-(2,4-difluorobenzyl)-6-oxo-1,6-dihydropyridazin-3-yl)-5-fluoro-2-methyl-1H-indol-1-yl)acetic acid]",17
8,"Cc1c(-c2ccc(=O)n(Cc3ccc(S(C)(=O)=O)cc3)n2)c2cc(F)ccc2n1CC(=O)O [Example 73, 2-(5-fluoro-2-methyl-3-(1-(4-(methylsulfonyl)benzyl)-6-oxo-1,6-dihydro-pyridazin-3-yl)-1H-indol-1-yl)acetic acid]",76
9,"Cc1c(Cc2ccc(=O)n(Cc3ccccc3F)n2)c2ccccc2n1CC(=O)O [Example 74, 2-(3-((1-(2-fluorobenzyl)-6-oxo-1,6-dihydropyridazin-3-yl)methyl)-2-methyl-1H-indol-1-yl)acetic acid]",2
10,"Cc1c(Cc2ccc(=O)n(Cc3cccc(F)c3)n2)c2ccccc2n1CC(=O)O [Example 75, 2-(3-((1-(3-fluorobenzyl)-6-oxo-1,6-dihydropyridazin-3-yl)methyl)-2-methyl-1H-indol-1-yl)acetic acid]",101
11,"Cc1c(Cc2ccc(=O)n(Cc3ccc(F)cc3)n2)c2ccccc2n1CC(=O)O [Example 76, 2-(3-((1-(4-fluorobenzyl)-6-oxo-1,6-dihydropyridazin-3-yl)methyl)-2-methyl-1H-indol-1-yl)acetic acid]",16
12,"Cc1c(Cc2ccc(=O)n(Cc3cccc(F)c3F)n2)c2ccccc2n1CC(=O)O [Example 79, 2-(3-((1-(2,3-difluorobenzyl)-6-oxo-1,6-dihydropyridazin-3-yl)methyl)-2-methyl-1H-indol-1-yl)acetic acid]",22
13,"Cc1c(Cc2nn(Cc3ccccc3)c(=O)c3ccccc23)c2cc(Cl)ccc2n1CC(=O)O [Example 84, 2-(3-((3-Benzyl-4-oxo-3,4-dihydrophthalazin-1-yl)methyl)-5-chloro-2-methyl-1H-indol-1-yl)acetic acid]",28
14,"Cc1c(Cc2cn(Cc3ccccc3)c(=O)c3ccccc23)c2ccccc2n1CC(=O)O [Example 86, 2-(3-((2-benzyl-1-oxo-1,2-dihydroisoquinolin-4-yl)methyl)-2-methyl-1H-indol-1-yl)acetic acid]",197
15,"Cc1c(-c2cn(Cc3ccccc3)c(=O)c3c2CCCC3)c2cc(F)ccc2n1CC(=O)O [Example 88, 2-(3-(2-benzyl-1-oxo-1,2,5,6,7,8-hexahydroisoquinolin-4-yl)-5-fluoro-2-methyl-1H-indol-1-yl)acetic acid]",197
16,"Cc1c(-c2cn(CCCC(F)(F)F)c(=O)c3c2CCCC3)c2cc(F)ccc2n1CC(=O)O [Example 89, 2-(5-fluoro-2-methyl-3-(1-oxo-2-(4,4,4-trifluorobutyl)-1,2,5,6,7,8-hexahydro-isoquinolin-4-yl)-1H-indol-1-yl)acetic acid]",123
17,"Cc1c(-c2cn(CC(F)(F)F)c(=O)c3c2CCCC3)c2cc(F)ccc2n1CC(=O)O [Example 90, 2-(5-fluoro-2-methyl-3-(1-oxo-2-(2,2,2-trifluoroethyl)-1,2,5,6,7,8-hexahydro-isoquinolin-4-yl)-1H-indol-1-yl)acetic acid]",> 1000
18,"Cc1c(-c2cn(C(C)C)c(=O)c3c2CCCC3)c2cc(F)ccc2n1CC(=O)O [Example 91, 2-(5-fluoro-3-(2-isopropyl-1-oxo-1,2,5,6,7,8-hexahydroisoquinolin-4-yl)-2-methyl-1H-indol-1-yl)acetic acid]",107
19,"Cc1c(-c2cn(CC(C)(C)O)c(=O)c3c2CCCC3)c2cc(F)ccc2n1CC(=O)O [Example 92, 2-(5-fluoro-3-(2-(2-hydroxy-2-methylpropyl)-1-oxo-1,2,5,6,7,8-hexahydro-iso-quinolin-4-yl)-2-methyl-1H-indol-1-yl)acetic acid]",> 1000
20,"Cc1c(-c2cn(Cc3ccc(F)cc3F)c(=O)c3c2CCCC3)c2cc(F)ccc2n1CC(=O)O [Example 94, 2-(3-(2-(2,4-difluorobenzyl)-1-oxo-1,2,5,6,7,8-hexahydroisoquinolin-4-yl)-5-fluoro-2-methyl-1H-indol-1-yl)acetic acid]",119

# Further compounds by falling IC50, results first:
row,IC50 [nM],Structure (SMILES)
1,210,"Cc1c(Cc2cn(Cc3ccccc3)c(=O)c3ccccc23)c2cc(Cl)ccc2n1CC(=O)O [Example 87, 2-(3-((2-benzyl-1-oxo-1,2-dihydroisoquinolin-4-yl)methyl)-5-chloro-2-methyl-1H-indol-1-yl)acetic acid]"
2,62,"Cc1c(Cc2cn(Cc3ccccc3)c(=O)c3ccccc23)c2cc(F)ccc2n1CC(=O)O [Example 85, 2-(3-((2-benzyl-1-oxo-1,2-dihydroisoquinolin-4-yl)methyl)-5-fluoro-2-methyl-1H-indol-1-yl)acetic acid]"
3,43,"Cc1c(-c2ccc(=O)n(Cc3cc(F)ccc3F)n2)c2cc(F)ccc2n1CC(=O)O [Example 72, 2-(3-(1-(2,5-Difluorobenzyl)-6-oxo-1,6-dihydropyridazin-3-yl)-5-fluoro-2-methyl-1H-indol-1-yl)acetic acid]"
4,32,"Cc1c(Cc2ccc(=O)n(Cc3ccccc3)n2)c2ccccc2n1CC(=O)O [Example 77, 2-(3-((1-Benzyl-6-oxo-1,6-dihydropyridazin-3-yl)methyl)-2-methyl-1H-indol-1-yl)acetic acid]"
5,23,"Cc1c(-c2ccc(=O)n(Cc3cc(F)ccc3F)n2)c2cc(Cl)ccc2n1CC(=O)O [Example 67, 2-(5-chloro-3-(1-(2,5-difluorobenzyl)-6-oxo-1,6-dihydropyridazin-3-yl)-2-methyl-1H-indol-1-yl)acetic acid]"
6,23,"Cc1c(Cc2ccc(=O)n(Cc3ccc(C(F)(F)F)cc3)n2)c2cc(Cl)ccc2n1CC(=O)O [Example 81, 2-(5-Chloro-2-methyl-3-((6-oxo-1-(4-(trifluoromethyl)benzyl)-1,6-dihydropyridazin-3-yl)-methyl)-1H-indol-1-yl)acetic acid]"
7,21,"Cc1c(-c2cn(CCc3ccccc3)c(=O)c3c2CCCC3)c2cc(F)ccc2n1CC(=O)O [Example 93, 2-(5-fluoro-2-methyl-3-(1-oxo-2-phenethyl-1,2,5,6,7,8-hexahydro-iso-quinolin-4-yl)-1H-indol-1-yl)acetic acid]"
8,18,"Cc1c(-c2nn(Cc3ccc(S(C)(=O)=O)cc3)c(=O)c3ccccc23)c2cc(F)ccc2n1CC(=O)O [Example 65, 2-(5-fluoro-2-methyl-3-(3-(4-(methylsulfonyl)benzyl)-4-oxo-3,4-dihydro-phthalazin-1-yl)-1H-indol-1-yl)acetic acid]"
9,16,"Cc1c(-c2ccc(=O)n(Cc3cc(F)c(F)cc3F)n2)c2cc(F)ccc2n1CC(=O)O [Example 70, 2-(5-fluoro-2-methyl-3-(6-oxo-1-(2,4,5-trifluorobenzyl)-1,6-dihydro-pyridazin-3-yl)-1H-indol-1-yl)acetic acid]"
10,16,"Cc1c(Cc2ccc(=O)n(Cc3ccccc3)n2)c2cc(Cl)ccc2n1CC(=O)O [Example 80, 2-(3-((1-Benzyl-6-oxo-1,6-dihydropyridazin-3-yl)methyl)-5-chloro-2-methyl-1H-indol-1-yl)acetic acid]"
11,16,"Cc1c(Cc2ccc(=O)n(Cc3ccc(C(F)(F)F)cc3)n2)c2cc(F)ccc2n1CC(=O)O [Example 82, 2-(5-fluoro-2-methyl-3-((6-oxo-1-(4-(trifluoromethyl)benzyl)-1,6-dihydro-pyridazin-3-yl)methyl)-1H-indol-1-yl)acetic acid]"
12,2,"Cc1c(CC2=NN(Cc3ccccc3)C(=O)CC2)c2cc(F)ccc2n1CC(=O)O [Example 78, 2-(3-((1-Benzyl-6-oxo-1,4,5,6-tetrahydropyridazin-3-yl)methyl)-5-fluoro-2-methyl-1H-indol-1-yl)acetic acid]"
